Like-named read-outs stand apart in the source and are kept apart here.
What was measured:
[1] = Human crossover pharmacokinetic interaction study of WM (Tamiflu) alone or with CMF1; assay type: in vivo, human (Chinese male healthy volunteers); conditions: human; for half-life: read-out: T 1/2 (terminal half-life) (converted); for Tmax: read-out: T max
Procedure: Normal healthy Chinese male subjects aged 20–45 years were recruited in this study. […] The study was conducted using a single-center, randomized, open-labeled, multiple dose (5 days), two-treatment, two-period, two-sequence crossover design. […] Each subject underwent two treatment sessions (periods I and II), and each session consists of 5-day treatment (twice daily for day 1 to day 4, morning dose for day 5). The two treatment sessions were separated by a washout period of 2 weeks. 250 mL water was used for WM (Tamiflu capsule, 75 mg per dose) administration. […] Drinking water was not allowed from 1 h predose to 1 h postdose except that needed for drug dosing. […] All blood and urine collection was taken on day 5 of each treatment session. […] Blood samples were collected from a catheter, which was placed in the forearm vein before dosing. At the specified time, 5 mL of blood was drawn (except for 0 time and at 2 h which was 10 mL each for additional antiviral activity determination) and stored in vacuette lithium heparin tubes (Greiner Bio-One). […] Plasma samples were collected after centrifugation and then stored at −80°C until assay. Urine was also collected (and the volume was recorded) at pre-dose, 0–4, 4–8, and 8–12 h intervals. […] After mixing and centrifugation, the supernatant was loaded in prewashed Oasis MCX cartridge (1 cc, 30 mg, Waters) and the cartridge was rinsed subsequently with 1% formic acid, water, and methanol followed by vacuum dried for 20 min. The analytes were then eluted with 1 mL of 1% ammonia in methanol. The eluting solvent was dried by a vacuum concentrator and the residue was reconstituted with 200 μL of 0.1% formic acid : methanol (1 : 1 v/v) prior to HPLC/MS/MS analysis using an ABI 2000 Q-Trap triple quadrupole mass spectrometer (Applied Biosystems) coupled with PE-200 series micropumps and autosampler (Perkin-Elmer). […] In human study, trough concentration (C trough) was defined as the minimum concentration obtained and was obtained at 12 h post-dose. […] In human studies, the comparison of WM + CMF1 to WM alone treatments was evaluated using a 90% confidence intervals (90% CI) approach (USFDA guideline, Drug Interactions Studies, September 2006). […] The statistical model included terms describing the effects attributable to sequence, subject (nested in sequence), period, and treatment (formulation). […] Difference in the median T max between both treatments was evaluated using Wilcoxon signed-rank test. For comparison of the human antiviral activities, one-way analysis of variance in conjunction with post hoc Turkey's range test was performed.

[2] = Rat in situ intestinal perfusion model, effect of CMF1 on absorption of OA; assay type: in vivo; conditions: CMF1 6.8 mg/mL vs OA alone (Figure 2)
Procedure: In view of the consistent effect of CMF1 on OA and OC, further confirmation was performed using rat in situ intestinal perfusion model as described previously. Perfusion concentrations were set at 6.8 mg/mL for CMF1. The flow rate of perfusate applied to the intestinal lumen was set at 0.3 mL/min. Samples obtained from the mesenteric vein were collected into the preweighted 2 mL centrifuge tubes (each containing 30 μL of 10 mg/mL saline solution of dichlorvos) at every 5 min. All collected samples were weighted and centrifuged at 13,000 rpm for 4 min immediately. The plasma samples were stored at −80°C refrigerator until further treated by SPE and analyzed by LC/MS/MS assay as described above.

H3N2 = system: H3N2; set-up: method as in PMID 20215135; conditions: read-out: inhibitory concentrations (IC50) against H3N2; cited from earlier work
influenza virus strains = system: influenza virus strains; set-up: method as in PMID 20215135; conditions: read-out: inhibitory concentrations (IC50) against influenza virus strains; cited from earlier work
[3] = cited from earlier work
[4] = geometric mean ratio of (WM + CMF1)/WM
[5] = male, in vivo, 75 mg, day 5, WM alone, n = 14, arithmetic mean ± SD
[6] = male, in vivo, day 5, WM + CMF1, n = 14, arithmetic mean ± SD

Compound: CCC(CC)O[C@@H]1C=C(C(=O)O)C[C@H](N)[C@H]1NC(C)=O [OC, oseltamivir carboxylate]
- lowering of 12 h cumulative amount excreted in urine by co-administration of CMF1 [1]: ~ 14%
- 12 h Cum. amt. in urine, geometric mean ([1]; WM + CMF1, n = 14): 61224.10 µg
- 12 h Cum. amt. in urine, geometric mean ([1]; WM alone, n = 14): 71215.61 µg
- time to reach peak maximum in plasma ([1]; approximate value): 4 to 5 h
- 12 h Cum. amt. in urine ([1]; day 5, WM + CMF1, n = 14, arithmetic mean ± SD): 62087 ± 10741 µg
- 12 h Cum. amt. in urine ([1]; day 5, WM alone, n = 14, arithmetic mean ± SD): 72851 ± 15312 µg
- GM Ratio of 12 h Cum. amt. in urine [1, 4]: 85.97%
- GM Ratio of AUC0–12 h [1, 4]: 91.32%
- GM Ratio of C max [1, 4]: 91.32%
- concentration of OC in plasma relative to the respective OA ([1]; oral WM): ~ 10 fold
- AUC(0-t) ([1]; male, in vivo, 75 mg, WM alone, n = 14, read-out: AUC0–12 h, geometric mean): 4450 ng·h/mL
- Cmax ([1]; male, in vivo, 75 mg, WM alone, n = 14, read-out: C max, geometric mean): 526 ng/mL
- CL renal ([1]; male, in vivo, 75 mg, approximate value, read-out: renal clearance (converted)): ~267 mL/min
- concentration at 12 h ([1]; male, in vivo, 75 mg, day 5, WM alone (Tamiflu 75 mg bid), n = 14, arithmetic mean ± SD, read-out: C trough (plasma concentration at 12 h postdose)): 207 ± 67.7 ng/mL
- AUC(0-t) ([1]; male, in vivo, 75 mg, day 5, WM alone, n = 14, arithmetic mean ± SD, read-out: AUC0–12 h): 4580 ± 1160 ng·h/mL
- Cmax ([1]; male, in vivo, 75 mg, day 5, WM alone, n = 14, arithmetic mean ± SD, read-out: C max): 536 ± 102 ng/mL
- CL renal ([1]; male, in vivo, 75 mg, day 5, WM alone, n = 14, arithmetic mean ± SD, read-out: Renal clearance (converted)): 272 mL/min
- AUC(0-t) ([1]; male, in vivo, WM + CMF1, n = 14, read-out: AUC0–12 h, geometric mean): 4070 ng·h/mL
- Cmax ([1]; male, in vivo, WM + CMF1, n = 14, read-out: C max, geometric mean): 481 ng/mL
- concentration at 12 h ([1]; male, in vivo, both WM and WM + CMF1 treatments, approximate value, read-out: mean C trough): ~200 ng/mL
- concentration at 12 h ([1]; male, in vivo, both WM and WM + CMF1 treatments, read-out: mean C trough, molar equivalent): ~704 nM
- concentration at 2 h ([1]; male, in vivo, both treatments (WM and WM + CMF1), read-out: 2 h post-dose plasma concentration): 410 to 436 ng/mL
- concentration at 12 h ([1]; male, in vivo, day 5, WM + CMF1 (10 g per dose), n = 14, arithmetic mean ± SD, read-out: C trough (plasma concentration at 12 h postdose)): 195 ± 51.2 ng/mL
- AUC(0-t) ([1]; male, in vivo, day 5, WM + CMF1, n = 14, arithmetic mean ± SD, read-out: AUC0–12 h): 4140 ± 783 ng·h/mL
- Cmax ([1]; male, in vivo, day 5, WM + CMF1, n = 14, arithmetic mean ± SD, read-out: C max): 487 ± 82.7 ng/mL
- CL renal ([1]; male, in vivo, day 5, WM + CMF1, n = 14, arithmetic mean ± SD, read-out: Renal clearance (converted)): 257 mL/min
- half-life [1, 5]: 5.16 ± 1.27 h
- Tmax [1, 5]: 4.21 ± 0.97 h
- half-life [1, 6]: 5.7 ± 1.35 h
- Tmax [1, 6]: 3.5 ± 0.94 h
- accumulated amount in rat mesenteric blood in presence of CMF1 [2]: decreased without statistical significance
- IC50 (H3N2): 0.2 to 0.6 nM
- IC50 (influenza virus strains): 0.01 to 69.2 nM
- effect of food on bioavailability [3]: no significant effect
- maximum plasma oseltamivir carboxylate concentration ([3]; following 50 mg doses): about 230 μg/L
- absolute oral bioavailability of OC from orally administered OA ([3]; oral OA): 80%
- half-life ([3]; oral OA): 6 to 10 h
